What was measured:
Type in all cases: in vivo
Avena fatua (AVEFA) [1] = experiment: Example B post-emergence herbicidal activity, glasshouse pot test; details: 312 h, evaluated after 13 days, read-out: Post-emergence activity AVEFA (100=total damage to plant; 0=no damage to plant); for pest or weed control at 250 g/ha: rate 250 g/ha; for pest or weed control at 1000 g/ha: rate 1000 g/ha
Procedure: (§1) Seeds of a variety of test species were sown in standard soil in pots. After cultivation for one day (pre-emergence) or after 8 days cultivation (post-emergence) under controlled conditions in a glasshouse (at 24/16° C., day/night; 14 hours light; 65% humidity), the plants were sprayed with an aqueous spray solution derived from the formulation of the technical active ingredient in acetone/water (50:50) solution containing 0.5% Tween 20 (polyoxyethelyene sorbitan monolaurate, CAS RN 9005-64-5). The test plants were then grown in a glasshouse under controlled conditions in a glasshouse (at 24/16° C., day/night; 14 hours light; 65% humidity) and watered twice daily. After 13 days for pre and post-emergence, the test was evaluated (100=total damage to plant; 0=no damage to plant). Alopecurus myosuroides (ALOMY), Avena fatua (AVEFA), Setaria faberi (SETFA), Echinochloa crus-galli (ECHCG) and Amaranthus retoflexus (AMARE)

Setaria faberi (SETFA) [2] = experiment: as above; details: 312 h, evaluated after 13 days, read-out: Post-emergence activity SETFA (100=total damage to plant; 0=no damage to plant); for pest or weed control at 250 g/ha: rate 250 g/ha; for pest or weed control at 1000 g/ha: rate 1000 g/ha
Procedure: as §1

[3] = tested on: Amaranthus retoflexus (AMARE); experiment: as above; details: Amaranthus retroflexus, 312 h, evaluated after 13 days, read-out: Post-emergence activity AMARE (100=total damage to plant; 0=no damage to plant); for pest or weed control at 250 g/ha: rate 250 g/ha; for pest or weed control at 1000 g/ha: rate 1000 g/ha
Procedure: as §1

[4] = tested on: Alopecurus myosuroides (ALOMY); experiment: as above; details: 312 h, evaluated after 13 days, read-out: Post-emergence activity ALOMY (100=total damage to plant; 0=no damage to plant); for pest or weed control at 250 g/ha: rate 250 g/ha; for pest or weed control at 1000 g/ha: rate 1000 g/ha
Procedure: as §1

[5] = tested on: Echinochloa crus-galli (ECHCG); experiment: as above; details: 312 h, evaluated after 13 days, read-out: Post-emergence activity ECHCG (100=total damage to plant; 0=no damage to plant); for pest or weed control at 250 g/ha: rate 250 g/ha; for pest or weed control at 1000 g/ha: rate 1000 g/ha
Procedure: as §1

Avena fatua (AVEFA) [6] = experiment: Example B pre-emergence herbicidal activity, glasshouse pot test; details: 312 h, Rate 250 g/ha, evaluated after 13 days, read-out: Pre-Emergence Activity AVEFA (100=total damage to plant; 0=no damage to plant)
Procedure: as §1

Setaria faberi (SETFA) [7] = experiment: as above; details: 312 h, Rate 250 g/ha, evaluated after 13 days, read-out: Pre-Emergence Activity SETFA (100=total damage to plant; 0=no damage to plant)
Procedure: as §1

[8] = tested on: Amaranthus retoflexus (AMARE); experiment: as above; details: Amaranthus retroflexus, 312 h, Rate 250 g/ha, evaluated after 13 days, read-out: Pre-Emergence Activity AMARE (100=total damage to plant; 0=no damage to plant)
Procedure: as §1

[9] = tested on: Alopecurus myosuroides (ALOMY); experiment: as above; details: 312 h, Rate 250 g/ha, evaluated after 13 days, read-out: Pre-Emergence Activity ALOMY (100=total damage to plant; 0=no damage to plant)
Procedure: as §1

[10] = tested on: Echinochloa crus-galli (ECHCG); experiment: as above; details: 312 h, Rate 250 g/ha, evaluated after 13 days, read-out: Pre-Emergence Activity ECHCG (100=total damage to plant; 0=no damage to plant)
Procedure: as §1

SMILES	pest or weed control at 250 g/ha (Avena fatua (AVEFA) [1]) [%]	pest or weed control at 250 g/ha (Setaria faberi (SETFA) [2]) [%]	pest or weed control at 250 g/ha [3] [%]	pest or weed control at 250 g/ha [4] [%]	pest or weed control at 250 g/ha [5] [%]	pest or weed control at 250 g/ha (Avena fatua (AVEFA) [6]) [%]	pest or weed control at 250 g/ha (Setaria faberi (SETFA) [7]) [%]	pest or weed control at 250 g/ha [8] [%]	pest or weed control at 250 g/ha [9] [%]	pest or weed control at 250 g/ha [10] [%]	pest or weed control at 1000 g/ha (Avena fatua (AVEFA) [1]) [%]	pest or weed control at 1000 g/ha (Setaria faberi (SETFA) [2]) [%]	pest or weed control at 1000 g/ha [3] [%]	pest or weed control at 1000 g/ha [4] [%]	pest or weed control at 1000 g/ha [5] [%]
Cc1sc(-c2ccc(OC(F)F)cc2F)nc1C1C(=O)[C@@H]2[C@H](C1=O)[C@H]1CC[C@@H]2O1 (some centres unmarked) [Compound T54]	100	100	40	100	100	100	100	0	90	100					
CCc1sc(-c2ccc(Cl)cc2)nc1C1=C(OC(=O)C(C)(C)C)[C@@H]2[C@H](C1=O)[C@H]1CC[C@@H]2O1 (racemic) [Compound P3]	100	100	0	100	100										
CSc1ccc(-c2nc(C3C(=O)[C@@H]4[C@H](C3=O)[C@H]3CC[C@@H]4O3)c(C)s2)cc1 (some centres unmarked) [Compound T48]	40	90	40	60	100	20	90	0	40	70					
Cc1sc(-c2ccc(Cl)s2)nc1C1C(=O)[C@@H]2[C@H](C1=O)[C@H]1CC[C@@H]2O1 (some centres unmarked) [Compound T37]	10	90	0	50	90	0	90	0	30	40					
Cc1sc(-c2ccc(Cl)c(Cl)c2)nc1C1C(=O)[C@@H]2[C@H](C1=O)[C@H]1CC[C@@H]2O1 (some centres unmarked) [Compound T31]	50	70	0	60	80	70	90	20	60	90					
CCc1sc(-c2ccc(Cl)cc2)nc1C1=C(OC(=O)C2CC2)[C@@H]2[C@H](C1=O)[C@H]1CC[C@@H]2O1 (racemic) [Compound P4, cyclopropanecarboxylic acid-4-[2-(4-chloro-phenyl)-5-ethyl-thiazol-4-yl]-5-oxo-10-oxa-tricyclo[5.2.1.0*2,6*]dec-3-en-3-yl ester]	100	100	0	100	100	90	90	0	60	90					
CCc1sc(-c2ccc(OC(F)F)cc2)nc1C1C(=O)[C@@H]2[C@H](C1=O)[C@H]1CC[C@@H]2O1 (some centres unmarked) [Compound T42]	100	100	0	100	100	30	100	0	90	90					
Cc1cnc(-c2ccc(Cl)cc2)nc1C1C(=O)[C@@H]2[C@H](C1=O)[C@H]1CC[C@@H]2O1 (some centres unmarked) [Compound T53]	70	100	0	60	90	70	90	90	50	80					
Cc1sc(-c2ccc(Br)cn2)nc1C1=C(OC(=O)C2CC2)[C@@H]2[C@H](C1=O)[C@H]1CC[C@@H]2O1 (racemic) [Compound P6]	90	100	0	90	100	0	70	0	0	20					
Cc1sc(-c2ccc([S+](C)[O-])cc2)nc1C1C(=O)[C@@H]2[C@H](C1=O)[C@H]1CC[C@@H]2O1 (some centres unmarked) [Compound T49]	30	90	0	50	100	0	90	0	20	70					
CCc1sc(-c2ccc(Br)cc2C)nc1C1C(=O)[C@@H]2[C@H](C1=O)[C@H]1CC[C@@H]2O1 (some centres unmarked) [Compound T35]	100	100	0	100	100	100	100	0	100	100					
Cc1[se]c(-c2ccc(Cl)cc2)nc1C1C(=O)[C@@H]2[C@H](C1=O)[C@H]1CC[C@@H]2O1 (some centres unmarked) [Compound T34, 4-[2-(4-chloro-phenyl)-5-methyl-selenazol-4-yl]-10-oxa-tricyclo[5.2.1.0*2,6*]decane-3,5-dione]						20	90	0	40	70					
COC(=O)c1ccc(-c2cc(C3C(=O)[C@@H]4[C@H](C3=O)[C@H]3CC[C@@H]4O3)c(C)s2)cc1 (some centres unmarked) [Compound T19]											0	30	20	10	0
CCc1sc(-c2ccc(Cl)cc2)cc1C1C(=O)[C@@H]2[C@H](C1=O)[C@H]1CC[C@@H]2O1 (some centres unmarked) [Compound T17, 4-[5-(4-chloro-phenyl)-2-ethyl-thiophen-3-yl]-10-oxa-tricyclo[5.2.1.0*2,6*]decane-3,5-dione]											100	100	70	100	100
Cc1sc(-c2cc(C(F)(F)F)n(C)n2)cc1C1C(=O)[C@@H]2[C@H](C1=O)[C@H]1CC[C@@H]2O1 (some centres unmarked) [Compound T18]											0	40	0	20	20

— patent publication US8530667B2, “Herbicides” (Syngenta Limited, priority 2007, dated 2013)
